{"source": "paper PMC4125160", "about": "“Neurotoxicity and Mode of Action of N, N-Diethyl-Meta-Toluamide (DEET)” (PLoS ONE, 2014)", "key": {"[1]": {"target": "T1, Anopheles gambiae AChE (AgAChE), wild type G3 strain (Anopheles gambiae, UniProt Q869C3)", "T1 construct": "Homogenate enzymes were prepared from groups of ten non-blood fed adult female mosquitoes; from tissue; host or cells: whole adult female mosquitoes, G3 strain, supernatant of homogenate", "test": "AChE inhibition, Ellman assay", "assay_type": "biochemical", "source_text": "(§1) In vitro biochemical assays utilized five acetylcholinesterase (AChE) enzymes. Recombinant human AChE (hAChE) was purchased from a commercial source (lyophilized powder, Sigma C1682, St. Louis, MO, USA). Homogenates to prepare Anopheles gambiae AChE (AgAChE) were obtained from the wild type G3 strain and the resistant AKRON strain (BEI Resources; http://www.beiresources.org/). AKRON mosquitoes (from Benin and donated by M. Akogbeto) have both knockdown resistance (kdr) to pyrethroids (L1014F sodium channel mutation) and the G119S AChE mutation (ace-1R), which confers resistance to carbamates, [15]. Both strains were cultured in the Emerging Pathogens Institute, University of Florida, Gainesville, FL, USA from eggs provided by the Center for Disease Control, Atlanta, GA, USA. Homogenates were also used to prepare Aedes aegypti AChE (AeAChE) from mosquitoes provided by the CMAVE, USDA-ARS, Gainesville, FL, USA; Musca domestica AChE (MdAChE) from flies cultured in the Department of Entomology and Nematology, Medical Entomology Laboratory, University of Florida, Gainesville, FL, USA); and Drosophila melanogaster AChE (DmAChE) from flies (Oregon-R strain) cultured in the Emerging Pathogens Institute, University of Florida, Gainesville, FL, USA. Homogenate enzymes were prepared from groups of ten non-blood fed adult female mosquitoes, five whole bodied Drosophila, or three Musca heads homogenized in 1 mL of ice-cold sodium phosphate buffer (0.1 M sodium phosphate, pH 7.8) with an electric motor driven glass tissue homogenizer. The homogenate was centrifuged at 5000×g using a Sorvall Fresco refrigerated centrifuge at 4 °C for 5 minutes. The supernatant was used as the enzyme source, and all enzyme preparations contained 0.3% (v/v) triton X-100 and 1 mg/ml BSA. Prior to use, the recombinant human enzyme was diluted 500-fold into sodium phosphate buffer containing triton X-100 and 1 mg/ml BSA.\n(§2) Inhibition of AChE was determined using the Ellman assay and was based on the method outlined in Carlier et al.. Briefly, enzyme solution (10 µL) was added to each well of a 96-well micro assay plate, along with 20 µL of inhibitor in DMSO/saline suspension, and 150 µL of sodium phosphate buffer. Final concentration of DMSO was 0.1% in all incubations. The plate was incubated at 25 °C for ten minutes. Ellman assay reagents, acetylthiocholine iodide (0.4 mM, final concentration) and 5,5′-dithiobis-(2-nitro)benzoic acid (0.3 mM, final concentration), were prepared fresh and 20 µL was added to the enzyme to initiate the reaction."}, "[2]": {"target": "T2, Drosophila melanogaster AChE (DmAChE) (Drosophila melanogaster, UniProt P07140)", "T2 construct": "five whole bodied Drosophila, or three Musca heads homogenized; from tissue; host or cells: whole Drosophila (Oregon-R), supernatant of homogenate", "test": "AChE inhibition, Ellman assay", "assay_type": "biochemical", "source_text": "as §1, §2"}, "[3]": {"target": "T3, Aedes aegypti AChE (AeAChE) (Aedes aegypti, UniProt Q6A2E2)", "T3 construct": "Homogenate enzymes were prepared from groups of ten non-blood fed adult female mosquitoes; from tissue; host or cells: whole adult female mosquitoes, supernatant of homogenate", "test": "AChE inhibition, Ellman assay", "assay_type": "biochemical", "source_text": "as §1, §2"}, "Aedes aegypti": {"tested_on": "Aedes aegypti", "test": "Topical toxicity bioassay on adult females", "assay_type": "in vivo", "settings": "for signs of intoxication: DEET lethal doses, propoxur 1 ng/insect, five minutes after treatment; for LD50 (95% CI): topical application, ng of compound/mg body weight, 24 hr", "procedure": "Topical toxicity bioassays on adult female mosquitoes were performed based on the method of Pridgeon et al.. Briefly, insects were chilled on ice for 3 min, during which the appropriate volume (200 nL for mosquitoes, 1 µL for Musca) of chemical (dissolved in 95% ethanol) was applied onto the abdomen using a handheld Hamilton microapplicator. For each inhibitor, five doses were applied to groups of ten insects each and repeated three times. An ethanol-only treatment was included in each experiment as a negative control. Insects were transferred into a holding chamber post-treatment and supplied with free access to sugar water for the duration of the experiment. […] Three LD50 values were obtained and the mean LD50 value was calculated and used for statistical analysis.\nFor all toxicity assays, control mortality was corrected for using Abbots formula [19]; where corrected percent mortality = (% alive in control–% alive in treated) /% alive in control."}, "[4]": {"tested_on": "octopamine receptors of Sf21 cells", "test": "Calcium fluorescence assay in Sf21 cells", "assay_type": "cell-based", "settings": "100 µM", "procedure": "The Sf21 insect cell line was obtained from a commercial supplier (Invitrogen, Carlsbad, CA, USA) and maintained in log phase culture in Trichoplusia ni Medium-Formulation Hink (TNM-FH) from Sigma-Aldrich (St. Louis, MO, USA), supplemented with 10% fetal bovine serum and 100 U/ml penicillin and streptomycin (Sigma-Aldrich). Cells were cultured in a non-humidified environment and maintained at 27°C. Sf21 cells were passaged every 3–5 days according to manufacturer's instructions, and maintained for about 30 passes before being replaced by fresh cells.\nSf21 cells were plated into 96-well black-wall, clear bottom plates 24 h before calcium fluorescence assay. […] The octopamine receptor antagonist phentolamine (100 µM) was co-incubated with cells for 1 h before drug challenge. Phentolamine, octopamine, and DEET were dissolved in water, while propoxur was dissolved in 100% DMSO to make a stock solution, and in the assay, DMSO was kept to 0.1%. The experiment was repeated in triplicate with different plates of cells to obtain means and SEMs for each experimental condition."}, "[5]": {"settings": "mean, n = 3, read-out: IC50 (95% CI)"}}, "note": "Where two headings read alike, the source gives them in different places."}
{"compound": "CCN(CC)C(=O)c1cccc(C)c1", "note": "[DEET, N, N-diethyl-meta-toluamide]", "values": [{"measurement": "sensitivity of enzyme in words", "setting": "[1]; concentrations up to 10 mM", "value": "completely insensitive"}, {"measurement": "IC50", "setting": "[1]; [5]", "value": "> 10000", "unit": "µM"}, {"measurement": "IC50", "setting": "[2]; [5]", "value": 10000, "unit": "µM"}, {"measurement": "sensitivity of enzyme in words", "setting": "[3]; concentrations up to 10 mM", "value": "completely insensitive"}, {"measurement": "IC50", "setting": "[3]; [5]", "value": "> 10000", "unit": "µM"}, {"measurement": "signs of intoxication", "setting": "Aedes aegypti", "value": "both hyperexcitatory and lethargic tendencies"}, {"measurement": "LD50 (95% CI)", "setting": "Aedes aegypti", "value": "1102 (836–1367)a ng/mg"}, {"measurement": "increase in calcium fluorescence", "setting": "[4]; over control cells", "value": "ca. 30%"}]}
{"compound": "CNC(=O)Oc1ccccc1OC(C)C", "note": "[propoxur]", "values": [{"measurement": "IC50", "setting": "[1]", "value": 0.447, "unit": "µM"}, {"measurement": "IC50", "setting": "[2]", "value": 0.084, "unit": "µM"}, {"measurement": "IC50", "setting": "[3]", "value": 0.37, "unit": "µM"}, {"measurement": "signs of intoxication", "setting": "Aedes aegypti", "value": "intense hyperexcitation in the absence of any physical stimulation"}, {"measurement": "LD50 (95% CI)", "setting": "Aedes aegypti", "value": "1.4 (95% CI: 0.9–2.1) ng/mg"}, {"measurement": "effect on calcium fluorescence in words", "setting": "[4]", "value": "no effect"}]}
